Key:
DRB1*03:01 = target: T1, DRB1*03:01 (Homo sapiens, UniProt P01903+P01911, A100K/A102G/A103R/A169T/F55Y/I96L/K41T/L162R/M171V/P40S/Q125H/Q178H/Q39Y/R42S/S66N/T106N/T262R/W38E/Y61H); assay: REVEAL HLA-Peptide binding assay (ProImmune); conditions: score relative to high-affinity control peptide, percentage of the control signal
T1 construct: purchased ProImmune
Description: (§1) To test the designs, we synthesized twenty overlapping 15-mer peptides containing the introduced mutations and their wild-type counterparts. The peptides maximally covered the predicted epitopes around the mutations of all designed constructs that contained one and two mutations (Supplementary S2 Table). The affinity of these peptides to the three HLA alleles was measured at time zero and after 24 hours (Methods, Supplementary S3 and S4 Tables). We linearly combined the measured relative affinity scores across HLA alleles weighted by their allele frequencies for each peptide respectively to produce a score that approximates the overall immunogenicity (Fig 5A). Results are presented for measurements taken at time point zero. […] Overall, the measured and predicted immunogenicity of the tested peptides correlated well with r = 0.76 (CI95 = [0.48, 0.91], t = 4.885, df = 17, p-value = 1.4e-4; Fig 5A). Next, we compared the predicted and measured gain or loss in immunogenicity for the whole region by reconstructing the targeted region using overlapping peptides. The measured relative scores were linearly combined (as previously) and then normalized to the number of overlapping peptides used in the reconstruction (Fig 5B). The difference in the measured scores between the wild type and mutant regions can be thought of as a proxy for gain or loss in immunogenicity and correlated well to the predicted changes (r = 0.86, CI95 = [0.40, 0.97], t = 4.136, df = 6, p-value = 6.1e-3; Fig 5B).
(§2) In order to experimentally verify our in silico predictions for Factor VIII, we utilized the commercial REVEAL HLA-Peptide binding assay of ProImmune (www.proimmune.com). Peptides were synthesized using the PEPscreen custom library synthesis method, yielding high purity peptides for experimental analysis. HLA-peptide binding was assessed for the three HLA-DRB1 alleles used in this study (DRB1*15:01, DRB1*03:01 and DRB1*07:01). In short, the method compares the affinity of the studied peptide to the affinity of a high-affinity control peptide. Each peptide is then scored for binding to a certain HLA molecule relative to the score of the control peptide and reported as the percentage of the signal generated by the control peptide.

DRB1*07:01 = DRB1*07:01 (Homo sapiens, UniProt P01903+P01911, A100R/A102G/A103Q/D57E/D86V/E43K/F76Y/K127E/L162R/M171V/P40G/Q125H/Q99D/R33Q/R42Y/R54Q/S133A/S66F/T210M/V115G/Y107V/Y59L/Y89S); assay: REVEAL HLA-Peptide binding assay (ProImmune); conditions: score relative to high-affinity control peptide, percentage of the control signal
Description: as §1, §2

DRB1*15:01 = target: T2, DRB1*15:01 (Homo sapiens, UniProt P01903+P01911); assay: REVEAL HLA-Peptide binding assay (ProImmune); conditions: score relative to high-affinity control peptide, percentage of the control signal
T2 construct: purchased ProImmune
Description: as §1, §2

[1] = system: DRB1*15:01, DRB1*03:01 and DRB1*07:01; assay: Experimental immunogenicity score: relative HLA binding combined across alleles, weighted by allele frequency; design: species or system human; key: allele-frequency-weighted sum of binding, % of control peptide signal; conditions: for Difference to WT (Experimental Score): per peptide against wild-type counterpart; for Experimental Score: per peptide, weights DRB1*15:01 0.162, DRB1*07:01 0.146, DRB1*03:01 0.143
Description: as §1
Fig 5 (A) Correlation of experimental and predicted immunogenicity of each peptide. The experimental immunogenicity score of a peptide is defined as the linear combination of the individual experimentally determined relative HLA binding affinity of each HLA allele h ∈ H weighted by the HLA allele frequency. (B) Correlation of experimental and predicted immunogenicity of the whole redesigned region. The summarized immunogenicity score of the whole region is the linear combination of the overlapping peptides used to reconstruct the region, normalized by total number of peptides used. The predicted immunogenicity scores per peptide were computed according to our immunogenicity objective function. The red lines are a fitted linear regression and the red tubes represent their 95-confidence interval.
as §2

[2] = time 0 (H0), listed as LRIHPQSWVHHIALRM
[3] = time 0 (H0), listed as LRIHPQSWEHQIALRM
[4] = time 0 (H0), listed as YTRYLRIHPQSWEHQ
[5] = time 0 (H0), listed as VNSLDPPLFTRYLRI
[6] = time 0 (H0), listed as LTRLLRIHPQSWEHQ
[7] = time 0 (H0), listed as LTRYLRIHPQSWVHQ
[8] = time 0 (H0), listed as VNSLDPPLYTRYLRI

| Sequence | DRB1*03:01 (DRB1*03:01; after 24 hours (H24)) [%] | DRB1*03:01 (DRB1*03:01; time 0 (H0)) [%] | DRB1*07:01 (DRB1*07:01; after 24 hours (H24)) [%] | DRB1*07:01 (DRB1*07:01; time 0 (H0)) [%] | DRB1*15:01 (DRB1*15:01; after 24 hours (H24)) [%] | DRB1*15:01 (DRB1*15:01; time 0 (H0)) [%] | Difference to WT (Experimental Score) ([1]; after 24 hours (H24)) | Experimental Score ([1]; after 24 hours (H24)) | Difference to WT (Experimental Score) ([1]; time 0 (H0)) | Experimental Score ([1]; time 0 (H0)) | other results |
| --- | --- | --- | --- | --- | --- | --- | --- | --- | --- | --- | --- |
| LRIHPQSWVHHIALRM [Design M-5, peptide covering Q2335H] | 0.000 | 0.555 | 40.700 | 65.265 | 20.400 | 47.784 | 0.870 | 9.247 | 0.779 | 17.349 | DRB1*03:01 (DRB1*03:01; [2]): 0.6%; DRB1*07:01 (DRB1*07:01; [2]): 65.3%; DRB1*15:01 (DRB1*15:01; [2]): 47.8% |
| LRIHPQSWEHQIALRM [Design M-6, peptide covering V2333E] | 0.000 | 0.157 | 19.800 | 32.020 | 11.600 | 44.319 | -3.607 | 4.770 | -4.693 | 11.877 | DRB1*03:01 (DRB1*03:01; [3]): 0.2%; DRB1*07:01 (DRB1*07:01; [3]): 32%; DRB1*15:01 (DRB1*15:01; [3]): 44.3% |
| YTRYLRIHPQSWEHQ [Design M-12, peptide covering L2321Y, V2333E] | 0.200 | 0.155 | 40.700 | 59.728 | 0.700 | 3.876 | -7.303 | 6.084 | -8.351 | 9.370 | DRB1*03:01 (DRB1*03:01; [4]): 0.2%; DRB1*07:01 (DRB1*07:01; [4]): 59.7%; DRB1*15:01 (DRB1*15:01; [4]): 3.9% |
| VNSLDPPLFTRYLRI [Design M-1, peptide covering L2321F] | 0.165 | 0.165 | 0.497 | 6.490 | 0.000 | 0.427 | 0.042 | 0.096 | -0.356 | 1.040 | DRB1*03:01 (DRB1*03:01; [5]): 0.2%; DRB1*07:01 (DRB1*07:01; [5]): 6.5%; DRB1*15:01 (DRB1*15:01; [5]): 0.4% |
| LRLHPQSWEHQIALRM [Design M-15, peptide covering I2327L, V2333E] | 0.000 | 0.032 | 21.500 | 42.841 | 5.300 | 18.099 | -4.380 | 3.998 | -7.378 | 9.191 | – |
| RIHPQSWVHQIALRM [WT-2, wild-type peptide of Factor VIII C2 domain, reference compound] | 0.000 | 0.226 | 35.522 | 40.243 | 0.00277 | 5.029 | – | 5.187 | – | 6.723 | – |
| RIHPQSWVHHIALRM [Design M-4, peptide covering Q2335H] | 0.000 | 0.005 | 53.300 | 75.329 | 0.000 | 9.756 | 2.595 | 7.782 | 5.857 | 12.579 | – |
| LTRLLRIHPQSWEHQ [Design M-7, peptide covering Y2324L, V2333E] | 0.000 | 0.026 | 20.100 | 33.528 | 0.100 | 5.445 | -10.436 | 2.951 | -11.941 | 5.781 | DRB1*03:01 (DRB1*03:01; [6]): 0%; DRB1*07:01 (DRB1*07:01; [6]): 33.5%; DRB1*15:01 (DRB1*15:01; [6]): 5.4% |
| LTRYLRIHPQSWVHQ [WT-3, wild-type peptide of Factor VIII C2 domain, reference compound] | 0.243 | 0.243 | 74.002 | 87.324 | 15.728 | 30.478 | – | 13.387 | – | 17.722 | DRB1*03:01 (DRB1*03:01; [7]): 0.2%; DRB1*07:01 (DRB1*07:01; [7]): 87.3%; DRB1*15:01 (DRB1*15:01; [7]): 30.5% |
| VNSLDPPLYTRYLRI [Design M-3, peptide covering L2321Y] | 0.000 | 0.000 | 0.900 | 3.600 | 0.000 | 0.000 | 0.077 | 0.131 | -0.871 | 0.526 | DRB1*03:01 (DRB1*03:01; [8]): 0%; DRB1*07:01 (DRB1*07:01; [8]): 3.6%; DRB1*15:01 (DRB1*15:01; [8]): 0% |

— article PMC5851651, “Population-specific design of de-immunized protein biotherapeutics” (PLoS Computational Biology, 2018)
